Test results reported in patent US8202868B2, “4-piperazinyl-pyrimidine compounds suitable for treating disorders that respond to modulation of the dopamine D3 receptor” (Abbott GmbH & Co. KG, priority 2004, dated 2012).
Where a name gives a salt, the structure may show the parent alone.

Legend:
[1] = molecular target: T1, human dopamine D3 receptors (Homo sapiens, UniProt P35462); assay: Dopamine D3 receptor binding, [125I]-iodosulpride displacement; conditions: for Ki: membranes of HEK-293 cells, 0.1 nM [125I]-iodosulpride, 25° C., 60 minutes; for Ki(D2)/Ki(D3): selectivity ratio of receptor binding constants
T1 construct: expressed in transfected cells; host or cells: HEK-293
Procedure: (§1) The substance to be tested was either dissolved in methanol/Chremophor® (BASF-AG) or in dimethyl sulfoxide and then diluted with water to the desired concentration.
(§2) Each assay mixture was run in triplicate.
The incubation buffer contained 50 mM tris, 120 mM NaCl, 5 mM KCl, 2 mM CaCl2, 2 mM MgCl2 and 0.1% bovine serum albumin, 10 μM quinolone and 0.1% ascorbic acid (prepared fresh daily). The buffer was adjusted to pH 7.4 with HCl.
(§3) After having been incubated at 25° C. for 60 minutes, the assay mixtures were filtered through a Whatman GF/B glass fiber filter under vacuum using a cell collecting device. The filters were transferred to scintillation viols using a filter transfer system. After 4 ml of Ultima Gold® (Packard) have been added, the samples were shaken for one hour and the radioactivity was then counted in a Beta-Counter (Packard, Tricarb 2000 or 2200CA). The cpm values were converted into dpm using a standard quench series and the program belonging to the instrument.
(§4) The inhibition curves were analyzed by means of iterative nonlinear regression analysis using the Statistical Analysis System (SAS) which is similar to the “LIGAND” program described by Munson and Rodbard.

[2] = molecular target: T2, human dopamine D2L receptors (long isoform) (Homo sapiens, UniProt P14416); assay: Dopamine D2L receptor binding, [125I] iodospiperone displacement; conditions: membranes of HEK-293 cells, 0.01 nM [125I] iodospiperone, 25° C., 60 minutes; read-out: Ki(D2)
T2 construct: expressed in transfected cells; host or cells: HEK-293
Procedure: as §1, §2
The incubation buffer contained 50 mM tris, 120 mM NaCl, 5 mM KCl, 2 mM CaCl2, 2 mM MgCl2 and 0.1% bovine serum albumin. The buffer was adjusted to pH 7.4 with HCl.
as §3, §4

T1 sequence (P35462 whole entry): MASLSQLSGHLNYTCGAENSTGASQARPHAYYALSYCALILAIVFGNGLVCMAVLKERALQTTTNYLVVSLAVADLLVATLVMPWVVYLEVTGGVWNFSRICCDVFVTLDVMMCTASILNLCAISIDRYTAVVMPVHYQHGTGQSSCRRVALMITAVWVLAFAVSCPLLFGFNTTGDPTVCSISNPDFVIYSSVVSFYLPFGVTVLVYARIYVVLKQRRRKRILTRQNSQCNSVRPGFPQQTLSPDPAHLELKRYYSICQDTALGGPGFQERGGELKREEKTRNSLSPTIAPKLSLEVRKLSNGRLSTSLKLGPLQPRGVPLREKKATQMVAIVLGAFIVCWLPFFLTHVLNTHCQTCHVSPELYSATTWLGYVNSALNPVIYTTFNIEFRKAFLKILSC
T2 sequence (P14416 whole entry, canonical isoform): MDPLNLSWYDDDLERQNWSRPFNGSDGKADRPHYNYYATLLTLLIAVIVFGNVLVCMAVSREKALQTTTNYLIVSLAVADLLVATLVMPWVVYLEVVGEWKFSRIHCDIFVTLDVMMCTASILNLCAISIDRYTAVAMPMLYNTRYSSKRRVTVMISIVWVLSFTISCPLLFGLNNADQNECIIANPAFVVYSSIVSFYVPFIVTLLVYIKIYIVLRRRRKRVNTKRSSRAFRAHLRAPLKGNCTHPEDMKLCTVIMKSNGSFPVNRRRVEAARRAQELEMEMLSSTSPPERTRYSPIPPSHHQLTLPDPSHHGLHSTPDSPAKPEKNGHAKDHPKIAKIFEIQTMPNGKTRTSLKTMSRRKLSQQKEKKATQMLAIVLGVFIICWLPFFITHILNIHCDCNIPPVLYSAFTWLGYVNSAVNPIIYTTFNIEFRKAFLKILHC

Ki [1] [nM] | Ki(D2)/Ki(D3) [1] | Ki [2] [nM] | SMILES
1.3 | 314 | 405 | Cn1cnnc1SCCCN1CCN(c2cc(C3CCC3)nc(C(C)(C)C)n2)CC1 [Example 41, 2-tert-Butyl-4-{4-[3-(4-methyl-4H-[1,2,4]triazol-3-ylsulfanyl)-propyl]-piperazin-1-yl}-6-cyclobutylpyrimidine]
1.6 | 92 | 147 | Cn1c(OCCCN2CCN(c3cc(C4CCC4)nc(C(C)(C)C)n3)CC2)nnc1-c1ccccc1 [Example 64, 2-tert-Butyl-4-cyclobutyl-6-{4-[3-(4-methyl-5-phenyl-4H-[1,2,4]triazol-3-yloxy)-propyl]-piperazin-1-yl}-pyrimidine]
5.47 | 296 | 1610 | Cn1c(SCCCN2CCN(c3cc(C(C)(C)C)nc(C4CC4)n3)CC2)nnc1-c1cnccn1 [Example 57, 2-cyclopropyl-4-{4-[3-(5-pyrazin-4-methyl-4H-[1,2,4]triazol-3-ylsulfanyl)-propyl]-piperazin-1-yl}6-tert-butyl-pyrimidine hydrochloride]
2.6 | 40 | 104 | Cn1c(OCCCN2CCN(c3cc(C4(C)CC4)nc(C(C)(C)C)n3)CC2)nnc1-c1ccccc1 [Example 63, 2-tert-Butyl-4-(1-methyl-cyclopropyl)-6-{4-[3-(4-methyl-5-phenyl-4H-[1,2,4]triazol-3-yloxy)-propyl]-piperazin-1-yl}-pyrimidine]
